Article PMC3517478 (BMC Neurology, 2012)
Numbering of substitutions follows the chain as printed. Several values for one entry are separate records, joined by “and”; a condition that tells them apart may be missing. Identical values can stand only once.

Experiments:
[1] = target: T1, human α1R271L-GlyR expressed in HEK 293 cells (Homo sapiens, UniProt P23415, R299L); conditions: R271L
T1 sequence (P23415 29-457 R299L): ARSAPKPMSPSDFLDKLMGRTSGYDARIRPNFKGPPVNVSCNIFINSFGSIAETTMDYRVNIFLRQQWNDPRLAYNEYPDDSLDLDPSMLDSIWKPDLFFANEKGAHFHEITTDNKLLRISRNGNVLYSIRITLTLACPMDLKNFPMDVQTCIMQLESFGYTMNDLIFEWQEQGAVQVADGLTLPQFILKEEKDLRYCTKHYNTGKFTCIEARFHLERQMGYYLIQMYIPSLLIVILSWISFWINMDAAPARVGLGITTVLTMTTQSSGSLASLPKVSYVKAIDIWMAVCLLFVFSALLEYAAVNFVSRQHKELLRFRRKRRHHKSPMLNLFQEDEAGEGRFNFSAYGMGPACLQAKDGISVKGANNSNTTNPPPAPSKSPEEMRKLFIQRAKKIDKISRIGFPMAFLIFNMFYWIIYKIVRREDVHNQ
Excerpt: (§1) Human α1-, α1R271Q-, α1R271L-, α1R271K and α1S267I-GlyR subunits were transiently transfected into human embryonic kidney cells (HEK 293, ATCC, Manassas, USA). The wild type α1-GlyR -cDNA was cloned in pCIS2 (Invitrogen, San Diego, USA) vector and provided by Prof. Heinrich Betz (Max-Planck-Institut für Hirnforschung, Frankfurt am Main, Germany). For the plasmid cDNA of the mutated α1R271Q-, α1R271L-, α1R271K- and α1S267I-GlyR the eukaryotic expression vector pcDNA1amp (Invitrogen, San Diego, USA), under the control of cytomegalovirus promoter, was used. For site-directed mutagenesis, single stranded template cDNA was synthesized from M13 origin of replication and the mutations of arginine residue (R) at position 271 to glutamine (R271Q), leucine (R271L) or lysine (R271K) and mutation of serine residue (S) at position 267 to isoleucine (S267I) were generated using standard procedures. […] Wild type and mutated α1-GlyR subunits efficiently form homomeric receptors in heterologous expression systems.
(§2) HEK 293 cells were cultured in medium containing HAMS’F-12 (Biochrom, Berlin, Germany), supplemented with 10% fetal bovine serum (FBS, Biochrom, Berlin, Germany), 100 U ml^–1 penicillin and 100μgml^–1 streptomycin (Gibco BRL, Life Technologies, Karlsruhe, Germany) at 37°C in a 5% CO2/ 95% air incubator. For transfection cells were suspended in a buffer containing 50mM K2HPO4 (Fluka BioChemika, Seelze, Germany), 20mMK-acetate (Sigma-Aldrich, Taufkirchen, Germany) and 25mM MgSO4 (Sigma-Aldrich, Taufkirchen, Germany) at pH 7.35. To visualize transfected cells, they were co-transfected with cDNA encoding for enhanced green fluorescent protein (EGFP) contained in the pEGFP-N1 expression vector (Clontech, Palo Alto, USA). The corresponding cDNA (5μg for the GlyR and 2.5μg for EGFP) was added to 400μl of the cell suspension and the mixture was rapidly transferred into the electroporation cuvette. For transfection we used an electroporation device by EquiBio (Kent, UK) and a 4mm aluminum electrode electroporation cuvette (Peqlab, Erlangen, Germany).
(§3) The phenol derivative 4-chloropropofol ([…]) was provided as pure substance by Prof. Paul M. O’Neill (University of Liverpool, England), prepared as light-protected 1M stock solution in ethanol (EtOH, J.T.Baker, Griesheim, Germany) and stored in glass vessels at −20°C.
(§4) Drug-containing vials were vigorously vortexed for 30min. Patch electrodes were filled with an intracellular solution of [mM] KCl 140, MgCl2 2, EGTA 11, HEPES 10, glucose 11, CaCl2 1 with pH 7.3, adjusted with 1 M KOH and a bath solution contained [mM] NaCl 162, KCl 5.31, NaHPO4 0.85, KH2PO4 0.22, HEPES 15, glucose 6.11, pH 7.4 adjusted with 1 M NaOH. Osmolarity of both solutions was set at 280–300 mOsmol.
(§5) Whole-cell experiments were performed at a holding potential of −30 mV with a mean seal resistance of 1 GΩ. […] A fast liquid filament switch technique was used for the application of the agonist, presented in pulses of 2 s duration every 20 s. The liquid filament switch technique is able to exchange the solution passing an outside-out patch or small whole-cells within 1–2 ms. We calculated flow rate of background solution through the chamber with 3,4 ml/min corresponding to 4% of maximal pump rate. With regard to the chamber volume of 100 μl the exchange solution time within the chamber was assessed to approximately […], dependent on cell size accordingly. Piezo-switch and small diameter capillary (ID 0.15 mm) within the measurement chamber promoted the millisecond solution exchange. […] The induced current (I) by this saturating control solution was defined as Icontrol. […] The stability of the seal was controlled during the complete experiment via control of the seal resistance. A variation of 10-20% of the basic value was regarded as tolerable.

[2] = target: T2, human α1-GlyR (WT) expressed in HEK 293 cells (Homo sapiens, UniProt P23415)
T2 sequence (P23415 29-457): T1 sequence (P23415 29-457 R299L) with L271R
Excerpt: as §1, §2, §3, §4, §5

[3] = 10-90% of Imax, monoexponential fit

In the case of `NCC(=O)O` [glycine], the “Current amplitude [% of mean WT current amplitude] ± SEM” value [1] is reported as 20.5±12%, the “nH ± SEM (Hill coefficient), glycine activation” value [1] is reported as 1.8±0.7 and the “Rise time ± SEM” value [1, 3] is reported as 998 ± 129 ms. The “Mean current amplitude ± SEM” value ([1]; saturating glycine 300 mM) was 336±51 pA, the “Current amplitude [% of mean WT current amplitude] ± SEM” value [2] was 100.0±26% and the “nH ± SEM (Hill coefficient), glycine activation” value [2] was 0.8 and 0.8±0.7. For the same compound, the “Rise time ± SEM” value [2, 3] was 3.7 ms and 3.7 ± 0.8 ms and the “Mean current amplitude ± SEM” value ([2]; saturating glycine 1 mM) was 1645±426 pA.
